Here are results for 3 compounds from US20250380697A1, “ISOXAZOLINE DERIVATIVE COMPOUND AND INSECTICIDAL COMPOSITION COMPRISING SAME” (KYUNG NONG CORPORATION, priority 2022, published 2025).

Assay type in all cases: in vivo
The test system of one data set is Lymantria dispar. The experiment in a line: Pesticidal activity against Lymantria dispar, leaf-dipping method. Conditions: maple leaf-dipping, counted 24, 48, 72 hours, time not given, read-out: mortality rate, Lymantria dispar. Here is the method:
Maple leaves were dipped in the pesticide composition where the compound of Synthesis Example 2 was diluted (the solvent=distilled water+acetone 50,000 mg/L+Triton X-100 100 mg/L) for 30 seconds, and sufficiently shade-dried by placing them on aluminum foil. Then, in order to maintain the humidity of the shade-dried maple leaves, they were placed on a petri dish (9.0 cm in diameter) covered with a filter paper (9.0 cm in diameter) treated with distilled water, and repeatedly inoculated 4 times of five early third instar larvae of Lymantria dispar. In particular, Lymantria dispar larvae used were collected in Jukjang-myeon, Buk-gu, Pohang-si, Gyeongsangbuk-do, Korea. Then, Lymantria dispar larvae were stored under 16 hours of light: 8 hours of dark, 25±1° C., and 50-60% relative humidity, and the number of Lymantria dispar larvae was counted 24, 48, and 72 hours after inoculation. Thereafter, the larvae mortality rate was calculated in the same manner as in Test Example 1 above.

Another data set relates to Manulea degenerella. The data set is described as follows: Pesticidal activity against Manulea degenerella, spray method. Conditions: third instar larvae, counted 24, 48, 72 hours, time not given. From the text:
A water-soaked filter paper (9.0 cm in diameter) was placed in an insect breeding dish (Lab Guide®) with a diameter of 9.0 cm and a height of 4.0 cm, and then parafilm (width 4.0 cm×height 4.0 cm) was placed thereon. Before treating with a pesticide composition, 10 of the third instar Manulea degenerella larvae were inoculated per breeding dish using a No. 4 brush. In particular, Manulea degenerella larvae used were those collected in Icheon, Gyeonggi-do (Korea). Then, the pesticide composition where the compound of Synthesis Example 2 was diluted (the solvent=distilled water+acetone 50,000 mg/L+Triton X-100 100 mg/L) was loaded into a 100 mL small sprayer, and sprayed 10-12 times at a distance of 30 cm and a height of 50 cm, and one cotyledons of a persimmon tree, which is a host plant, were added one at a time. Then, the Manulea degenerella larvae were stored under the conditions of 16 hours of light and 8 hours of darkness, 25±1° C., and relative humidity of 50-60%, and the number of live Manulea degenerella larvae was counted 24, 48, and 72 hours after the inoculation. Thereafter, the larvae mortality rate was calculated in the same manner as in Test Example 1 above.

Data set [1] has as its system Resistant Plutella xylostella. The experiment in a line: Resistance (tolerance) test against Plutella xylostella. Conditions: leaf-dipping, chlorantraniliprole-selected resistant individuals, counted 24 and 48 hours, read-out: mortality rate, Resistant Plutella xylostella. Here is the method: Resistance (tolerance) tests for pesticide compositions were performed on Plutella xylostella. In this case, the Plutella xylostellas used were resistant individuals obtained as follows: radish sprouts were germinated using a moth breeding acrylic cage (25 cm×30 cm×30 cm) to induce egg-laying in a breeding room in the Chungbuk National University (Korea), and the adult insects were collected using an InsectaVac Aspirator (BioQuip®) and induced to lay eggs again by applying a selection pressure using diamide-based chlorantraniliprole at 12.5 ppm once a month to breed for multiple generations.
Cabbage leaves were dipped in the pesticide composition where the compound was diluted (the solvent=distilled water+acetone 50,000 mg/L+Triton X-100 100 mg/L) for 30 seconds, and sufficiently shade-dried. Then, the shade-dried cabbage leaves were placed in a petri dish (8.8 cm in diameter) covered with a filter paper and repeatedly inoculated 3-5 times with third instar larvae of Plutella xylostella, which are resistant individuals, 10 larvae per inoculation. Then, the Plutella xylostella larvae were stored under the conditions of 16 hours of light and 8 hours of dark, 25±1° C., and relative humidity of 50-60%, and the number of live […] larvae was counted 24 and 48 hours after the inoculation. Thereafter, the larvae mortality rate was calculated in the same manner as in Test Example 1 above, and the results are shown in Table 2 below.

Another data set relates to Grapholita molesta. The experiment in a line: Pesticidal activity against Grapholita molesta, spray method. Conditions: spray on apples, counted 24, 72, 192 hours, time not given, read-out: mortality rate, Grapholita molesta. Here is the method: The pesticide composition where the compound of Synthesis Example 2 was diluted (the solvent=distilled water+acetone 50,000 mg/L+Triton X-100 100 mg/L) was directly sprayed on apples using a CO2 Sprayer® [a nozzle type: Teejet8002VS (a flat fan type), pressure: 800 psi), and then apples were collected 1 hour later, and Grapholita molesta larvae were repeatedly inoculated 5-6 times, 3 per apple. In particular, the Grapholita molesta larvae were collected in the R&D Center of Kyung Nong Co., Ltd. (Gyeongju, Korea), and they were used after acclimatization indoors for 24 hours. Then, the Grapholita molesta larvae were stored under the conditions of 16 hours of light and 8 hours of dark, 25±1° C. and relative humidity of 50-60%, and the number of live Grapholita molesta larvae was counted 24, 72, and 192 hours after the inoculation. Thereafter, the larvae mortality rate was calculated in the same manner as in Test Example 1 above.

The test system of the next data set is Helicoverpa armigera. The data set is described as follows: Pesticidal activity against Helicoverpa armigera, leaf-dipping method. Conditions: counted 24, 48, 72 hours, time not given, read-out: mortality rate, Helicoverpa armigera. Here is the method: Cabbage (Daiya) leaves were cut into pieces with a diameter of 5.8 cm, dipped in the pesticide composition where the compound of Synthesis Example 2 was diluted (the solvent=distilled water+acetone 50,000 mg/L+Triton X-100 100 mg/L) for 30 seconds, and sufficiently shade-dried. Then, the shade-dried cabbage leaves were placed in a petri dish (8.8 cm in diameter) covered with a filter paper and repeatedly inoculated 3-5 times with third instar larvae of Helicoverpa armigera, 10 larvae per inoculation. In this case, Helicoverpa armigera larvae used were those purchased from the Andong National University (Korea). Then, the Helicoverpa armigera larvae were stored under the conditions of 16 hours of light and 8 hours of dark, 25±1° C., and relative humidity of 50-60%, and the number of live Helicoverpa armigera larvae was counted 24, 48, and 72 hours after the inoculation. Thereafter, the larvae mortality rate was calculated in the same manner as in Test Example 1 above.

For `Cc1cc(C2=NOC(c3cc(Cl)cc(C(F)(F)F)c3)(C(F)(F)F)C2)ccc1C(=O)NC(=O)C1CC1` (racemic) [Synthesis Example 2], in the data set with Lymantria dispar, the mortality (usually the share of the test organisms that died) at 0.01 ppm came to 74% and the mortality at 0.1 ppm turned out to be 100%. Also, the “mortality rate, Manulea degenerella” value with Manulea degenerella (0.1 ppm) amounted to 100%. Further, in the data set with Manulea degenerella (1 ppm), the “mortality rate, Manulea degenerella” value was determined as 100%. Further, in data set [1], the mortality at 0.1 ppm is 93%, the mortality at 0.3 ppm came to 96% and the mortality at 1 ppm was determined as 100%. For the same compound, in the data set on Grapholita molesta, the mortality at 10 ppm was found to be 85%. The mortality at 0.1 ppm in the data set on Helicoverpa armigera was 100%.

Consider `CNC(=O)c1cc(Cl)cc(C)c1NC(=O)c1cc(Br)nn1-c1ncccc1Cl` [Comparative Example 2, chlorantraniliprole], for which the mortality at 0.01 ppm with Lymantria dispar amounted to 0%. For the same compound, the mortality at 0.1 ppm in the data set on Lymantria dispar was 10%; in the data set with Helicoverpa armigera, 31%. Also, the “mortality rate, Manulea degenerella” value in the data set with Manulea degenerella (0.1 ppm) and in the data set on Manulea degenerella (1 ppm) was 100% throughout. In addition, the mortality at 1 ppm in data set [1] came to 34%. In addition, the mortality at 10 ppm with Grapholita molesta turned out to be 85%.

Take `CON=CNC(=O)c1ccc(C2=NOC(c3cc(Cl)cc(Cl)c3)(C(F)(F)F)C2)cc1C` (stereo not shown) [Comparative Example 1, fluxametamide]: the mortality at 0.01 ppm with Lymantria dispar stood at 5%. Further, the mortality at 0.1 ppm amounted to 95% in the data set on Lymantria dispar, 34% in data set [1] and 78% in the data set with Helicoverpa armigera. Further, the “mortality rate, Manulea degenerella” value is 0% in the data set on Manulea degenerella (0.1 ppm) and 16%% with Manulea degenerella (1 ppm). Also, the mortality at 0.3 ppm in data set [1] is 38%. For the same compound, the mortality at 1 ppm in data set [1] is 58%. Besides, the mortality at 10 ppm with Grapholita molesta was 85%.
